One may read the IC50 as the concentration that inhibits the measured activity by half.

For 26 compounds, IC50 results are on record in ChEMBL document CHEMBL4184206, “Design, synthesis and evaluate of novel dual FGFR1 and HDAC inhibitors bearing an indazole scaffold” (Bioorg Med Chem, 2018).

The subject of assay [1] is MCF7. In words: Antiproliferative activity against human MCF7 cells after 48 hrs by CCK-8 assay. The settings on record: MCF7, 48 h. (In general: Formazan colour is commonly taken as a measure of viable cells.)
Assay [2] concerns the target T1, Protein deacetylase HDAC6 (Homo sapiens, UniProt Q9UBN7).
T1 sequence (Q9UBN7 whole entry): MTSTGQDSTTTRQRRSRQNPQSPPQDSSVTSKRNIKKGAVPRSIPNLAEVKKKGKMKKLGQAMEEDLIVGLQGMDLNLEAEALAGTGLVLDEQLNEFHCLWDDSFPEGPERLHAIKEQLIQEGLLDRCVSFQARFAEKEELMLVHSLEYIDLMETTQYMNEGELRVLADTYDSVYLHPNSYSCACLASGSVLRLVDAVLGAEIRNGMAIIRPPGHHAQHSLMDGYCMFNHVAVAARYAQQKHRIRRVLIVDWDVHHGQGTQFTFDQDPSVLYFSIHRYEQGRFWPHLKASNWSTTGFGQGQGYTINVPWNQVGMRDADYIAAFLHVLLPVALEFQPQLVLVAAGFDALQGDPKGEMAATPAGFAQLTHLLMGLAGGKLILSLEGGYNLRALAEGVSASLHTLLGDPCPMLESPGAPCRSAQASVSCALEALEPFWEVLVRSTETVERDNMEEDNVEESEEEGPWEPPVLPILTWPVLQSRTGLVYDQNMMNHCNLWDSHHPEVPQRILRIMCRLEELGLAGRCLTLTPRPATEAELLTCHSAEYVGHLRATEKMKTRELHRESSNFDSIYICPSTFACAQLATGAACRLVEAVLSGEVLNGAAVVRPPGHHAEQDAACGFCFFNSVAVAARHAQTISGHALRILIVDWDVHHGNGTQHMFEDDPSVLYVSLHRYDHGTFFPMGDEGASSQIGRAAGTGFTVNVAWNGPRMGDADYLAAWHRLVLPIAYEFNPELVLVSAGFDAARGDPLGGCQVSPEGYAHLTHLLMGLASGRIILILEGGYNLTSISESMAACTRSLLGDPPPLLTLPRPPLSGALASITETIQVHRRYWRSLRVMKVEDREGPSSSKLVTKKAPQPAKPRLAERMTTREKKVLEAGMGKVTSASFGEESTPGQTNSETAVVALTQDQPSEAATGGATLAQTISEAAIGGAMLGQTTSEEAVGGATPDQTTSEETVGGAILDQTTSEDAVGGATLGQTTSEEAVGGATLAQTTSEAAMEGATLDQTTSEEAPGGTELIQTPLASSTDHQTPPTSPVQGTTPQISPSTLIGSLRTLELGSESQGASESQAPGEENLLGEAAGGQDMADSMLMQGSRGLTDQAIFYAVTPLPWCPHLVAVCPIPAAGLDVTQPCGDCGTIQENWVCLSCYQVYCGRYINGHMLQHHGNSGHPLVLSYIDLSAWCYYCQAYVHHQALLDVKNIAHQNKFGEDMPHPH
Briefly: Inhibition of HDAC6 (unknown origin) preincubated for 10 mins followed by Ac-Leu-GlyLys(Ac)-AMC substrate addition measured after 30 mins by fluorescence based assay.

On to `CCN1CCN(c2ccc(C(=O)Nc3n[nH]c4cc(-c5cccc(OC)c5F)ccc34)cc2)CC1`, for which the IC50 in assay [1] stood at 40.5 nM.
As for `CCCOc1cccc(-c2ccc3c(NC(=O)c4ccc(C(=O)NO)cc4)n[nH]c3c2)c1`, the IC50 in assay [2] is 345 nM; in assay [1] it was greater than 100000 nM.
For the compound `O=C(NO)c1ccc(C(=O)Nc2n[nH]c3cc(-c4ccc(Cl)c(F)c4)ccc23)cc1`, the values for the IC50 in assay [2] and in assay [1] were 98 nM and greater than 100000 nM, respectively.
With `CCOc1cccc(-c2ccc3c(NC(=O)c4ccc(C(=O)NO)cc4)n[nH]c3c2)c1`, the IC50 stood at 34 nM in assay [2] and 9000 nM in assay [1].
For `O=C(NO)c1ccc(C(=O)Nc2n[nH]c3cc(-c4cc(Cl)cc(Cl)c4)ccc23)cc1`, the values for the IC50 in assay [2] and in assay [1] were 293 nM and greater than 100000 nM, respectively.
The corresponding values for `COc1ccccc1-c1ccc2c(NC(=O)c3ccc(C(=O)NO)cc3)n[nH]c2c1` are 40 nM and 28000 nM.
The corresponding values for `O=C(NO)c1ccc(C(=O)Nc2n[nH]c3cc(-c4ccc(C(F)(F)F)cc4)ccc23)cc1` are 103 nM and greater than 100000 nM.
The corresponding values for `COc1cccc(-c2ccc3c(NC(=O)c4ccc(C(=O)NO)cc4)n[nH]c3c2)c1F` are 58 nM and greater than 100000 nM.
Take `O=C(NO)c1ccc(C(=O)Nc2n[nH]c3cc(-c4cc(Cl)ccc4Cl)ccc23)cc1`: the results for the IC50 in assay [2] and in assay [1] were 178 nM and greater than 100000 nM, respectively.
The matching figures for `O=C(NO)c1ccc(C(=O)Nc2n[nH]c3cc(-c4cccc(Cl)c4Cl)ccc23)cc1`: 157 nM and greater than 100000 nM.
For the compound `CC(C)Oc1cccc(-c2ccc3c(NC(=O)c4ccc(C(=O)NO)cc4)n[nH]c3c2)c1`, the IC50 in assay [2] is 78 nM; in assay [1] it was greater than 100000 nM.
The matching figures for `O=C(NO)c1ccc(C(=O)Nc2n[nH]c3cc(-c4cccc(OC(F)(F)F)c4)ccc23)cc1`: 218 nM and greater than 100000 nM.
The corresponding values for `Cc1cc(C)cc(-c2ccc3c(NC(=O)c4ccc(C(=O)NO)cc4)n[nH]c3c2)c1` are 250 nM and greater than 100000 nM.
For the compound `COc1cc(OC)cc(-c2ccc3c(NC(=O)c4ccc(C(=O)NO)cc4)n[nH]c3c2)c1`, the 50% inhibitory concentration (IC50) in assay [2] is 242 nM; in assay [1], greater than 100000 nM.
For `COc1ccc(-c2ccc3c(NC(=O)c4ccc(C(=O)NO)cc4)n[nH]c3c2)cc1OC`, the values for the IC50 in assay [2] and in assay [1] were 33 nM and 15200 nM, respectively.
The matching figures for `O=C(NO)c1ccc(C(=O)Nc2n[nH]c3cc(-c4ccccc4)ccc23)cc1`: 38 nM and greater than 100000 nM.
Turning to `O=C(NO)c1ccc(C(=O)Nc2n[nH]c3cc(-c4cccc(Cl)c4)ccc23)cc1`, the figures for the IC50 in assay [2] and in assay [1] were 69 nM and greater than 100000 nM, respectively.
The corresponding values for `COc1ccc(F)cc1-c1ccc2c(NC(=O)c3ccc(C(=O)NO)cc3)n[nH]c2c1` are 64 nM and greater than 100000 nM.
As to `O=C(NO)c1ccc(C(=O)Nc2n[nH]c3cc(-c4ccc(Cl)c(Cl)c4)ccc23)cc1`, the IC50 in assay [2] was 147 nM; in assay [1] it was greater than 100000 nM.
The matching figures for `COc1cccc(-c2ccc3c(NC(=O)c4ccc(C(=O)NO)cc4)n[nH]c3c2)c1`: 132 nM and greater than 100000 nM.
The corresponding values for `O=C(NO)c1ccc(C(=O)Nc2n[nH]c3cc(-c4ccccc4F)ccc23)cc1` are 65 nM and 45000 nM.
The matching figures for `O=C(NO)c1ccc(C(=O)Nc2n[nH]c3cc(-c4c(Cl)cccc4Cl)ccc23)cc1`: 385 nM and greater than 100000 nM.
For the compound `O=C(NO)c1ccc(C(=O)Nc2n[nH]c3cc(-c4ccc(Cl)cc4)ccc23)cc1`, the values for the IC50 in assay [2] and in assay [1] were 281 nM and greater than 100000 nM, respectively.
For the compound `O=C(NO)c1ccc(C(=O)Nc2n[nH]c3cc(-c4ccccc4Cl)ccc23)cc1`, the IC50 came out at 59 nM in assay [2] and 23000 nM in assay [1].
On to `COc1ccc(-c2ccc3c(NC(=O)c4ccc(C(=O)NO)cc4)n[nH]c3c2)cc1`, for which the IC50 in assay [2] was determined as 41 nM; in assay [1], 22000 nM.
Compound `CCCCN(Cc1ccc(C(=O)NO)cc1)C(=O)Nc1ccccc1` [NEXTURASTAT A] gave an IC50 in assay [1] of 1400 nM.
